“Also recorded” adds a separate entry of the source.

The source of these data is patent publication US20250161263A1, “USE OF A COMPOUND, PHARMACEUTICAL FORMULATION, METHOD OF TREATMENT FOR ASTHMA AND/OR COPD, AND COMPOUND” (FUNDAÇÃO OSWALDO CRUZ, priority 2022, published 2025).

Common to all, as to assay type: in vivo, mice (BALB/c)
One assay concerns IL-5. In words: IL-5 in bronchoalveolar lavage by ELISA, airway hypersensitivity model. How it is done: (§1) The ovalbumin-induced airway hypersensitivity model (BOLANDI et al., 2021), used as the basis for the present findings, induces pathophysiological and structural changes which characterize respiratory diseases such as asthma and chronic obstructive pulmonary disease (COPD).
(§2) The mice were divided into groups of six animals and immunized with a subcutaneous injection of 10 μg of ovalbumin (Sigma, St. Louis, MO) diluted in 2 mg/ml alum (Alunmlmject; Pierce, Rockford, IL), followed by of a booster injection 14 days later. From day 28 onwards, the mice were placed in an acrylic box and subjected to inhalation exposure to ovalbumin (1%) for 15 minutes per day, for five consecutive days. The ovalbumin solution was nebulized using an ultrasonic inhaler (RespiraMax, Brazil). The protocol used to induce airway hypersensitivity was performed as previously described (POSSA, 2013). The naive group was challenged with saline only. To carry out the treatments, two hours before each challenge via inhalation, the mice were treated with braylin ([…] and 12.5 mg/kg, via inhalation), dexamethasone (30 mg/kg via intraperitoneal) or vehicle (10% propylene glycol in saline, inhaled).
(§3) The animals were euthanized with a lethal dose of ketamine and xylazine (300 mg/Kg and 30 mg/Kg, respectively via i.p.) 24 hours after the last challenge to collect bronchoalveolar lavage (BAL). Intratracheal instillation of 1 ml of ice-cold PBS was performed, followed by BAL collection, and this procedure was repeated. The first wash was centrifuged and the supernatant stored at −70° C. for subsequent quantification of cytokines by ELISA. The second wash was centrifuged, the supernatant was discarded and the pellets were resuspended in 1 ml of saline to count total leukocytes using a Neubauer chamber. […]
(§4) The bronchoalveolar lavage supernatant stored at −70° C. was thawed and used to quantify the cytokines IL-4, IL-5 and IL-13 by the ELISA method, using specific kits (R&D System, Minnesota, MN, USA) for mice, following the manufacturer's instructions (VASCONCELOS, 2009).
For orientation: An ELISA detects its analyte on a solid surface through an enzyme-linked reagent.

Assay [1] deals with PAS-labeled mucus-producing goblet cells of the bronchiolar epithelium. In words: Goblet cell metaplasia / mucus production, PAS-stained lung sections, airway hypersensitivity model. The note with it: braylin treatment (FIG. 5: 50 mg/kg/in), p<0.05. How it is done: as §1
(§5) The mice were divided into groups of six animals and immunized with a subcutaneous injection of 10 μg of ovalbumin (Sigma, St. Louis, MO) diluted in 2 mg/ml alum (Alunmlmject; Pierce, Rockford, IL), followed by of a booster injection 14 days later. From day 28 onwards, the mice were placed in an acrylic box and subjected to inhalation exposure to ovalbumin (1%) for 15 minutes per day, for five consecutive days. The ovalbumin solution was nebulized using an ultrasonic inhaler (RespiraMax, Brazil). […]
After collecting the bronchoalveolar lavage, lung perfusion was performed intratracheally with 1 ml formalin (4%) and, subsequently, the right lobe of the lungs of each animal was removed and fixed in the same solution for histological and morphometric analysis. The sections were stained with hematoxylin and eosin to quantify inflammatory cells by optical microscopy according to the number of cores present in the fields with the largest population of cells. To quantify mucus production, staining was performed with periodic acid-Schiff (PAS) and the marked areas were quantified. […]

The test system of assay [2] is total inflammatory cells in bronchoalveolar lavage (airway hypersensitivity model in mice). Nature of the assay: Total inflammatory cell count in bronchoalveolar lavage, ovalbumin-induced airway hypersensitivity model. Particulars: vs vehicle. How it is done: as §1
as §5, with “Brazil). The protocol used to induce airway hypersensitivity was performed as previously described (POSSA, 2013). The naive group was challenged with saline only.” for “Brazil).”
(§6) The animals were euthanized with a lethal dose of ketamine and xylazine (300 mg/Kg and 30 mg/Kg, respectively via i.p.) 24 hours after the last challenge to collect bronchoalveolar lavage (BAL). Intratracheal instillation of 1 ml of ice-cold PBS was performed, followed by BAL collection, and this procedure was repeated. The first wash was centrifuged and the supernatant stored at −70° C. for subsequent quantification of cytokines by ELISA. The second wash was centrifuged, the supernatant was discarded and the pellets were resuspended in 1 ml of saline to count total leukocytes using a Neubauer chamber. To carry out the differential cell count, 10,000 cells were collected from the previous resuspension, centrifuged in Cytospin® and stained with hematoxylin and eosin (VASCONCELOS, 2009).

In a further assay the test system is IL-13. Nature of the assay: IL-13 in bronchoalveolar lavage by ELISA, airway hypersensitivity model. How it is done:
as §1, §2, §3, §4

In another assay the test system is IL-4. In words: IL-4 in bronchoalveolar lavage by ELISA, airway hypersensitivity model. The note with it: p<0.05. On the procedure: as §1, §5
The animals were euthanized with a lethal dose of ketamine and xylazine (300 mg/Kg and 30 mg/Kg, respectively via i.p.) 24 hours after the last challenge to collect bronchoalveolar lavage (BAL). […] The first wash was centrifuged and the supernatant stored at −70° C. for subsequent quantification of cytokines by ELISA. […]
as §4

Assay [3] concerns inflammatory cells in lung tissue. In words: Pulmonary inflammatory infiltrate, HE-stained lung sections, airway hypersensitivity model. Particulars: 50 mg/kg inhaled, vs vehicle, p<0.05.
Description: The mice were divided into groups of six animals and immunized with a subcutaneous injection of 10 μg of ovalbumin (Sigma, St. Louis, MO) diluted in 2 mg/ml alum (Alunmlmject; Pierce, Rockford, IL), followed by of a booster injection 14 days later. From day 28 onwards, the mice were placed in an acrylic box and subjected to inhalation exposure to ovalbumin (1%) for 15 minutes per day, for five consecutive days. The ovalbumin solution was nebulized using an ultrasonic inhaler (RespiraMax, Brazil). […] The naive group was challenged with saline only.
After collecting the bronchoalveolar lavage, lung perfusion was performed intratracheally with 1 ml formalin (4%) and, subsequently, the right lobe of the lungs of each animal was removed and fixed in the same solution for histological and morphometric analysis. The sections were stained with hematoxylin and eosin to quantify inflammatory cells by optical microscopy according to the number of cores present in the fields with the largest population of cells. […] 10 fields (400×) per animal were analyzed for a total of 5 animals, and the data were used to calculate the average number of cells per mm^2, or the area stained with PAS. The program used to assist in cell counting and area determination was Image-Pro PLUS, version 4.5 (Media Cybernetics, Silver Spring, USA).
The subject of assay [4] is eosinophils, neutrophils and mononuclear cells in bronchoalveolar lavage. In words: Differential count of eosinophils, neutrophils and mononuclear cells in bronchoalveolar lavage, airway hypersensitivity model. The note with it: 50 mg/Kg by inhalation. On the procedure: as §1, §2, §6

With `COc1cc2ccc(=O)oc2c2c1OC(C)(C)C=C2` [braylin], the “level of IL-5 in BAL” value was “significant reduction” in the assay with IL-5 (12.5 mg/kg inhaled); “reduced” in the assay on IL-5 (25 mg/kg inhaled, p<0.05); “reduced” in the assay with IL-5 (50 mg/kg inhaled, p<0.05). For the same compound, the “Goblet cell labeling (PAS) in the bronchiolar epithelium, mucus production” value in assay [1] is listed as “reduced”. In addition, the “number of inflammatory cells in the BAL” value in assay [2] (12.5 mg/kg by inhalation) is recorded as “no effect”; in assay [2] (25 mg/kg by inhalation, p<0.05), “reduced”; in assay [2] (50 mg/kg by inhalation, 5 consecutive days, p<0.05), “significantly lower; also recorded: reduced”; in assay [2] (50 mg/kg intraperitoneally, 5 consecutive days, p<0.05), “significantly lower”; in assay [2] (100 mg/kg by inhalation, p<0.05), “reduced”. Besides, the “level of IL-13 in BAL” value in the assay on IL-13 (12.5 mg/kg inhaled) was “significant reduction”; in the assay with IL-13 (25 mg/kg inhaled, p<0.05), “reduced”; in the assay on IL-13 (50 mg/kg inhaled, p<0.05) it was “reduced”. Further, the “level of IL-4 in BAL” value in the assay with IL-4 (25 mg/kg inhaled) and in the assay with IL-4 (50 mg/kg inhaled) was “reduced” throughout. Besides, the “lung inflammation, presence of inflammatory cells in HE-stained lung” value in assay [3] is listed as “reduction in lung inflammation”. Also, the “quantity of mononuclear cells in BAL” value in assay [4] (compared with naive group) is recorded as “approached the values found in mice in the naive group”. Besides, the “amount of eosinophils present in BAL” value in assay [4] (vs vehicle, p<0.05) is “reduced”. Besides, the “amount of neutrophils present in BAL” value in assay [4] (vs vehicle, p<0.05) is recorded as “reduced”.
